Test results taken from patent US8735414B2 (priority 2009, dated 2014).
pIC50: −log10 of the molar value.

Experiments:
[1] = test system: bicistronic HCV replicon (replicon RNA, GenBank Accession No. AJ242654); test: HCV Replicon Assay; assay type: cell-based; conditions: Hepatitis C virus, 72 h, read-out: Replicon IC50

Row | Compound | pIC50 [1] | melting point
1 | CC(C)n1c(-c2ccc(S(=O)(=O)N[C@@H](C)C3CC3)cn2)c(C#N)c2cc(F)ccc21 [compound 604, 6-[3-cyano-5-fluoro-1-(propan-2-yl)-1H-indol-2-yl]-N-[(1S)-1-cyclopropylethyl]pyridine-3-sulfonamide] | > 6.30 | 138 to 143 °C
2 | C[C@@H](NS(=O)(=O)c1ccc(-c2c(C#N)c3cc(Cl)ccc3n2C2CCCCC2)nc1)C(F)(F)F [compound 461, 6-(5-chloro-3-cyano-1-cyclohexyl-1H-indol-2-yl)-N-[(2R)-1,1,1-trifluoropropan-2-yl]pyridine-3-sulfonamide] | > 6.30 | 226 to 227 °C
3 | N#Cc1c(-c2ccc(S(=O)(=O)NC(CF)CF)cn2)n(C2CCC2)c2cc(CC(F)F)ccc12 [compound 267, 6-[3-cyano-1-cyclobutyl-6-(2,2-difluoroethyl)-1H-indol-2-yl]-N-(1,3-difluoropropan-2-yl)pyridine-3-sulfonamide] | > 6.30 | 166 to 168 °C
4 | C[C@H](NS(=O)(=O)c1cnc(-c2c(C#N)c3ccc(OC(F)F)cc3n2C2CCCC2)nc1)C1CC1 [compound 209, 2-[3-cyano-1-cyclopentyl-6-(difluoromethoxy)-1H-indol-2-yl]-N-[(1S)-1-cyclopropylethyl]pyrimidine-5-sulfonamide] | > 6.30 | 183 to 185 °C
5 | Cc1cc2c(cc1F)c(C#N)c(-c1ccc(S(=O)(=O)N[C@@H](C)C(F)(F)F)cn1)n2-c1cnn(C)c1 [compound 1016, 6-[3-cyano-5-fluoro-6-methyl-1-(1-methyl-1H-pyrazol-4-yl)-1H-indol-2-yl]-N-[(2S)-1,1,1-trifluoropropan-2-yl]pyridine-3-sulfonamide] | > 6.30 | 233.7 to 239.3 °C
6 | Cc1ccc2c(c1)c(C#N)c(-c1ccc(S(=O)(=O)NC3(C(F)(F)F)CC3)cn1)n2C1CCCC1 [compound 313, 6-(3-cyano-1-cyclopentyl-5-methyl-1H-indol-2-yl)-N-[1-(trifluoromethyl)cyclopropyl]pyridine-3-sulfonamide] | > 6.30 | 209 to 214 °C
7 | N#Cc1c(-c2ccc(S(=O)(=O)NC3(C(F)(F)F)CC3)cn2)n(-c2ccc(F)cc2)c2cc(OC(F)F)ccc12 [compound 664, 6-[3-cyano-6-(difluoromethoxy)-1-(4-fluorophenyl)-1H-indol-2-yl]-N-[1-(trifluoromethyl)cyclopropyl]pyridine-3-sulfonamide] | > 6.30 | 195 to 198 °C
8 | CCc1cc2c(cc1F)c(C#N)c(-c1ccc(S(=O)(=O)N[C@@H](C)C(F)(F)F)cn1)n2-c1cncc(Cl)c1 [compound 983, 6-[1-(5-chloropyridin-3-yl)-3-cyano-6-ethyl-5-fluoro-1H-indol-2-yl]-N-[(2S)-1,1,1-trifluoropropan-2-yl]pyridine-3-sulfonamide] | > 6.30 | 107 to 109 °C
9 | Cc1ccc2c(C#N)c(-c3ncc(S(=O)(=O)N[C@@H](C)C(F)(F)F)cn3)n(C3CCCCC3)c2c1 [compound 605, 2-(3-cyano-1-cyclohexyl-6-methyl-1H-indol-2-yl)-N-[(2S)-1,1,1-trifluoropropan-2-yl]pyrimidine-5-sulfonamide] | > 6.30 | 257 to 260 °C
10 | CCc1cc2c(cc1F)c(C#N)c(-c1ccc(S(=O)(=O)N[C@@H](C)C(F)(F)F)cn1)n2-c1cccc(C#N)c1 [compound 1012, 6-[3-cyano-1-(3-cyanophenyl)-6-ethyl-5-fluoro-1H-indol-2-yl]-N-[(2S)-1,1,1-trifluoropropan-2-yl]pyridine-3-sulfonamide] | 5.70 to 6.30 | 244 to 248 °C
11 | C[C@H](NS(=O)(=O)c1cnc(-c2c(C#N)c3ccc(OC(F)F)cc3n2C2CCCC2)nc1)C(F)(F)F [compound 326, 2-[3-cyano-1-cyclopentyl-6-(difluoromethoxy)-1H-indol-2-yl]-N-[(2S)-1,1,1-trifluoropropan-2-yl]pyrimidine-5-sulfonamide] | > 6.30 | 231 to 232 °C
12 | C[C@H](NS(=O)(=O)c1cnc(-c2c(C#N)c3ccc(CC(F)F)cc3n2C2CCC2)nc1)C(F)(F)F [compound 385, 2-[3-cyano-1-cyclobutyl-6-(2,2-difluoroethyl)-1H-indol-2-yl]-N-[(2S)-1,1,1-trifluoropropan-2-yl]pyrimidine-5-sulfonamide] | > 6.30 | 216 to 218 °C
13 | CCc1cc2c(cc1F)c(C#N)c(-c1cc(C)c(S(=O)(=O)N[C@@H](C)C(F)(F)F)cn1)n2-c1ccccn1 [compound 852, 6-[3-cyano-6-ethyl-5-fluoro-1-(pyridin-2-yl)-1H-indol-2-yl]-4-methyl-N-[(2S)-1,1,1-trifluoropropan-2-yl]pyridine-3-sulfonamide] | > 6.30 | 178 to 183 °C
14 | CC(NS(=O)(=O)c1ccc(-c2c(C#N)c3ccc(C4CC4)cc3n2C2CCCC2)nc1)C(F)(F)F (centres unmarked) [compound 86, 6-(3-cyano-1-cyclopentyl-6-cyclopropyl-1H-indol-2-yl)-N-(1,1,1-trifluoropropan-2-yl)pyridine-3-sulfonamide] | > 6.30 | 166 to 170 °C
15 | N#Cc1c(-c2ncc(S(=O)(=O)NC(CF)CF)cn2)n(C2CCC2)c2cc(Cl)c(F)cc12 [compound 149, 2-(6-chloro-3-cyano-1-cyclobutyl-5-fluoro-1H-indol-2-yl)-N-(1,3-difluoropropan-2-yl)pyrimidine-5-sulfonamide] | > 6.30 | > 245 °C (dec.)
16 | COc1cc2c(cc1F)c(C#N)c(-c1ccc(S(=O)(=O)NC(CF)CF)cn1)n2C1CCC1 [compound 102, 6-(3-cyano-1-cyclobutyl-5-fluoro-6-methoxy-1H-indol-2-yl)-N-(1,3-difluoropropan-2-yl)pyridine-3-sulfonamide] | > 6.30 | 217 to 219 °C
17 | CC(C)S(=O)(=O)Nc1ccc(-c2c(C#N)c3ccc(C4CC4)cc3n2C2CCC2)cn1 [compound 289, N-[5-(3-cyano-1-cyclobutyl-6-cyclopropyl-1H-indol-2-yl)pyridin-2-yl]propane-2-sulfonamide] | 5.70 to 6.30 | 226 to 228 °C
18 | N#Cc1c(-c2ncc(S(=O)(=O)NC(CF)CF)cn2)n(CC2CC2)c2cc(C3CC3)ccc12 [compound 344, 2-[3-cyano-6-cyclopropyl-1-(cyclopropylmethyl)-1H-indol-2-yl]-N-(1,3-difluoropropan-2-yl)pyrimidine-5-sulfonamide] | > 6.30 | 205 to 210 °C
19 | C[C@H](NS(=O)(=O)c1cnc(-c2c(C#N)c3cc(Cl)ccc3n2C2CCCCC2)nc1)C(F)(F)F [compound 464, 2-(5-chloro-3-cyano-1-cyclohexyl-1H-indol-2-yl)-N-[(2S)-1,1,1-trifluoropropan-2-yl]pyrimidine-5-sulfonamide] | 5.70 to 6.30 | 253 to 255 °C
20 | Cc1ccc2c(c1)c(C#N)c(-c1ccc(S(=O)(=O)N[C@@H](C)C(F)(F)F)cn1)n2CC1CC1 [compound 372, 6-[3-cyano-1-(cyclopropylmethyl)-5-methyl-1H-indol-2-yl]-N-[(2S)-1,1,1-trifluoropropan-2-yl]pyridine-3-sulfonamide] | > 6.30 | 175 to 180 °C
21 | CCc1cc2c(cc1F)c(C#N)c(-c1ccc(S(=O)(=O)N[C@@H](C)C(F)(F)F)cn1)n2-c1cc(C)ccn1 [compound 932, 6-[3-cyano-6-ethyl-5-fluoro-1-(4-methylpyridin-2-yl)-1H-indol-2-yl]-N-[(2S)-1,1,1-trifluoropropan-2-yl]pyridine-3-sulfonamide] | > 6.30 | 188 to 190 °C
22 | N#Cc1c(-c2ccc(S(=O)(=O)NC(CF)CF)cn2)n(C2CCC2)c2cc(OC(F)(F)F)ccc12 [compound 24, 6-[3-cyano-1-cyclobutyl-6-(trifluoromethoxy)-1H-indol-2-yl]-N-(1,3-difluoropropan-2-yl)pyridine-3-sulfonamide] | > 6.30 | 158 to 160 °C
23 | Cc1cc2c(cc1F)c(C#N)c(-c1ccc(S(=O)(=O)N[C@@H](C)C(F)(F)F)cn1)n2-c1ccc(S(N)(=O)=O)s1 [compound 1034, 6-[3-cyano-5-fluoro-6-methyl-1-(5-sulfamoylthiophen-2-yl)-1H-indol-2-yl]-N-[(2S)-1,1,1-trifluoropropan-2-yl]pyridine-3-sulfonamide] | 5.70 to 6.30 | 131.6 to 137.7 °C
24 | Cc1ccc2c(C#N)c(-c3ncc(S(=O)(=O)N[C@H](C)C(F)(F)F)cn3)n(C3CCC3)c2c1 [compound 181, 2-(3-cyano-1-cyclobutyl-6-methyl-1H-indol-2-yl)-N-[(2R)-1,1,1-trifluoropropan-2-yl]pyrimidine-5-sulfonamide] | > 6.30 | 143 to 145 °C
25 | COc1cc2c(cc1F)c(C#N)c(-c1ccc(S(=O)(=O)NC(C)C)cn1)n2C1CCC1 [compound 101, 6-(3-cyano-1-cyclobutyl-5-fluoro-6-methoxy-1H-indol-2-yl)-N-(propan-2-yl)pyridine-3-sulfonamide] | > 6.30 | 234 to 237 °C
26 | CCc1cc2c(cc1F)c(C(N)=O)c(-c1ccc(S(=O)(=O)N[C@@H](C)C(F)(F)F)cn1)n2-c1cccc(Cl)c1 [compound 1027, 1-(3-chlorophenyl)-6-ethyl-5-fluoro-2-(5-{[(2S)-1,1,1-trifluoropropan-2-yl]sulfamoyl}pyridin-2-yl)-1H-indole-3-carboxamide] | > 6.30 | 200 to 205 °C
27 | CCc1cc2c(cc1F)c(C#N)c(-c1cc(C)c(S(=O)(=O)N[C@@H](C)C(F)(F)F)cn1)n2-c1ncccn1 [compound 851, 6-[3-cyano-6-ethyl-5-fluoro-1-(pyrimidin-2-yl)-1H-indol-2-yl]-4-methyl-N-[(2S)-1,1,1-trifluoropropan-2-yl]pyridine-3-sulfonamide] | > 6.30 | 231 to 236 °C
28 | C[C@H](NS(=O)(=O)c1ccc(-c2c(C#N)c3ccc(OC(F)F)cc3n2C2CCCCC2)nc1)C(F)(F)F [compound 341, 6-[3-cyano-1-cyclohexyl-6-(difluoromethoxy)-1H-indol-2-yl]-N-[(2S)-1,1,1-trifluoropropan-2-yl]pyridine-3-sulfonamide] | > 6.30 | 149 to 151 °C
